Nine compounds from ChEMBL document CHEMBL1128149, “Molecular design of novel PGI2 agonists without PG skeleton. IV” (Bioorg Med Chem Lett, 1995) can be followed below.

One experiment is filed under the species Homo sapiens. Kind of experiment: Compound was tested for its inhibitory activity against 4 uM ADP-induced platelet aggregation of human platelet rich plasma. It is filed as functional.
The next experiment concerns the target Prostacyclin receptor (Homo sapiens, UniProt P43119). Kind of experiment: Compound was tested for its binding affinity against Prostaglandin I2 receptor using conventional ligand assay by the displacement of [3H]-iloprost from human platelets.

Sequence of Prostacyclin receptor (P43119 whole entry): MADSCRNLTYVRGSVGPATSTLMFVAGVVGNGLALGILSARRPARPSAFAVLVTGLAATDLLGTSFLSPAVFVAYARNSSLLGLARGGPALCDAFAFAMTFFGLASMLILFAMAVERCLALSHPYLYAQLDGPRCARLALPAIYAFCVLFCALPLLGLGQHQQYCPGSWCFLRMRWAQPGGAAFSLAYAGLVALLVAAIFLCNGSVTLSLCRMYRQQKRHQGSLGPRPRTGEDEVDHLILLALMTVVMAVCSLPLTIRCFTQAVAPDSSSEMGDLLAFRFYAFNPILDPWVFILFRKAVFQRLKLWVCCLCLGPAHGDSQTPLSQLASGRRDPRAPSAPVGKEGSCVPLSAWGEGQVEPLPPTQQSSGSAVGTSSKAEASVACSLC

On to `O=C(O)COc1cccc2c1CCC(CC1C=NC(C(c3ccccc3)c3ccccc3)=N1)C2` (stereo not drawn), for which, in the experiment filed under Homo sapiens (Homo sapiens, Plasma), the IC50 amounted to 12000 nM. That is a double-digit micromolar value.

Regarding `O=C(O)COc1cccc2c1CCC(CC1=NC(C(c3ccccc3)c3ccccc3)=NC1)C2` (stereo not drawn), in the experiment filed under Homo sapiens, the 50% inhibitory concentration (IC50) worked out at 1000 nM.

Take `O=C(O)COc1cccc2c1CCC(Cc1coc(C(c3ccccc3)c3ccccc3)n1)C2` (stereo not drawn): the IC50 in the experiment listed under Homo sapiens came to 1000 nM.

In the case of `O=C(O)COc1cccc2c1CCC=C2CCn1cc(C(c2ccccc2)c2ccccc2)cn1`, the IC50 in the experiment listed under Homo sapiens (Homo sapiens, Plasma) turned out to be 8600 nM; on Prostacyclin receptor, 2000 nM.

Consider `O=C(O)COc1cccc2c1CCC(Cc1nc(C(c3ccccc3)c3ccccc3)co1)C2` (stereo not drawn), for which, in the experiment filed under Homo sapiens, the IC50 stood at 5100 nM.

As for `O=C(O)COc1cccc2c1CCC(Cn1cc(C(c3ccccc3)c3ccccc3)cn1)C2` (stereo not drawn), the figures for the 50% inhibitory concentration (IC50) in the experiment filed under Homo sapiens and on Prostacyclin receptor were 530 nM and 40 nM, respectively.

Take `O=C(O)COc1cccc2c1CCC(Cn1cc(C(c3ccccc3)c3ccccc3)cn1)=C2`: the IC50 in the experiment filed under Homo sapiens (Homo sapiens, Plasma) is 26 nM; at Prostacyclin receptor it was 8 nM.

On to `O=C(O)COc1cccc2c1CCCC2CCn1cc(C(c2ccccc2)c2ccccc2)cn1` (stereo not drawn), for which the IC50 in the experiment filed under Homo sapiens (Homo sapiens, Plasma) is 93 nM; at Prostacyclin receptor, 18 nM.

The compound `O=C(O)COc1cccc2c1CCC(Cn1cnc(C(c3ccccc3)c3ccccc3)c1)C2` (stereo not drawn) came in with an IC50 in the experiment filed under Homo sapiens (Homo sapiens, Plasma) of 670 nM.
